# Assay results as given in patent US20260000657A1, “ANTI-ANGIOGENIC THERAPY AS TREATMENT FOR BENIGN UTERINE DISORDERS” (STICHTING AMSTERDAM UMC, priority 2022, published 2026).
# Assays:
# [1] = test system: tamoxifen-induced mice model; details: from week 16 of age; cited from earlier work
# [2] = test system: uterus of mice with tamoxifen-induced adenomyosis
# Excerpt: Sunitinib is another angiogenesis inhibitor and a highly-fluorescent molecule, therefore it will be used as a model drug to microscopically assess uptake and distribution in uterine tissue after termination.
# Intra-uterine delivery of a gel containing slow-release Sunitinib in low dose will also be tested as an alternative treatment for oral Axinitib in mice with tamoxifen-induced adenomyosis.
# [3] = test system: tamoxifen-induced adenomyosis in CD-1 mice; test: Oral axitinib treatment in tamoxifen-induced adenomyosis mouse model; format: in vivo
# Protocol: After validation of the model, this model was used to test treatment with anti-vascular endothelial growth factor receptor 2 (VEGFR-2) tyrosine kinase inhibitor axitinib (A-1107; LC Laboratories). To induce adenomyosis, 108 mice received neonatal tamoxifen treatment and were randomly allocated to receive treatment or placebo. On day 42, anti-angiogenesis treatment commenced by oral axitinib treatment or placebo. Axitinib was dissolved in 0.5% sodium carboxymethylcellulose (CMC) at a dose of 25 mg/kg body weight (dose I) or at a dose of 3 mg/kg (dose II). All animals received treatment by daily oral gavage at 5 μl/g bodyweight with axitinib (dose I/II) or placebo (CMC) for a time period of three weeks. During this period, all animals had daily animal welfare observations, and were weighed at a minimum of three times per week. The experimental groups are depicted in FIG. 1.
# The uteri were cut in half, one horn (right/left horn randomized) was fixed in 4% formaldehyde at room temperature for 48 hours.
# Uterine tissue was embedded in paraffin and sliced into transverse oriented sections of 5 μm, with three sections of one uterine horn on one microscope slide. […] Paraffin-embedded sections were dewaxed in xylene, rehydrated in 100%, 96%, and 70% ethanol, and washed in PBS (pH 7.4). […] After washing in PBS, aspecific binding was blocked by 3% BSA/PBS for one hour. After adding primary antibodies diluted in 0.5% BSA/PBS, sections were incubated overnight at 4° C. […] After washing with PBS, horseradish peroxidase (HRP)—streptavidin (strep) was added (cat. no. ab6734; 1:200; Dako Cytomation) diluted in 0.5% BSA/PBS, for thirty minutes. The sections were then washed in PBS, afterwards 3,3′-Diaminobenzidine (DAB) was added (60 μl DAB; 1 μl 30% H2O2; 1 mL PBS), for eight minutes.
# [4] = test system: tamoxifen-induced adenomyosis in a murine model; test: Adenomyosis severity index (grade x affected surface area) in tamoxifen-induced adenomyosis murine model; format: in vivo, mice; details: dose II 3 mg/kg, post hoc p<0.05
# Excerpt: The adenomyosis severity index in tamoxifen-induced adenomyosis in a murine model has been determined based on the abovementioned results of grade of adenomyosis and adenomyosis-affected surface area. Specifically, the grade of adenomyosis (determined on H&E slides as described above) was multiplied by the adenomyosis-affected surface area (determined on vimentin-stained slides). The adenomyosis severity index is the average of all sections analyzed per uterine horn. The adenomyosis severity index was determined for placebo group (CMC-treated mice) and two axitinib-treated groups (dose II—AX3: axitinib 3 mg/kg; dose I—AX25: axitinib 25 mg/kg).
# [5] = test system: angiogenesis-related genes (VEGF-R1, VEGF-R2, VEGF-R3, VEGF-A, VEGF-B, CD31) in mouse uteri; test: Real-time quantitative PCR uterine gene expression profile after axitinib; format: in vivo, mice; details: RT-PCR
# Protocol: To study the efficacy of axitinib treatment at the molecular level, the expression levels of vascular marker CD31 and angiogenic growth factors VEGF-A, VEGF-B, VEGF receptor R1 (VEGF-R1), VEGF-R2, VEGF-R3, placental growth factor PlGF, and collagen were measured. Real-time quantitative PCR was performed in a random selection of uterine specimens exposed to axitinib (dose II, n=7; dose I, n=6) or placebo (CMC, n=7). The expression of each gene was normalized to the household gene cyclophilin A.
# [6] = test system: human adenomyosis lesions xenografted in mice; details: administered 14 days after xenografting; cited from earlier work
# CD-1 mice = test: Validation of tamoxifen-induced mouse adenomyosis model
# [7] = test system: uterine adenomyosis in SHN mice; details: cited from earlier work
# [8] = dose I 25 mg/kg daily oral gavage three weeks
# [9] = dose I 25 mg/kg daily oral gavage three weeks, N = 34
# [10] = dose II 3 mg/kg daily oral gavage three weeks
# [11] = dose II 3 mg/kg daily oral gavage three weeks, N = 34
# [12] = tamoxifen 1 mg/kg oral day 2-5 after birth, six weeks, n = 6
# [13] = tamoxifen 1 mg/kg, six weeks, n = 6
compound,measurement,setting,value
O=C(O)/C=C/c1ccc(Cn2ccnc2)cc1 [Ozagrel],Myometrial infiltration,[1],suppressed myometrial infiltration
CCN(CC)CCNC(=O)c1c(C)[nH]c(/C=C2\C(=O)Nc3ccc(F)cc32)c1C [Sunitinib],Uptake in uterine tissue after intra-uterine injection,"[2]; 1% and 0.1% of systemic dose, 4 h and 24 h after injection",uptake throughout the myometrium
same,Toxic effects when delivered locally,"[2]; mouse, in vivo",without any toxic effects
"CNC(=O)c1ccccc1Sc1ccc2c(/C=C/c3ccccn3)n[nH]c2c1 [Axitinib, axitinib]",No signs of adenomyosis (% of mice),[3]; [8],"11,8%"
same,Presented with adenomyosis (% of mice),[3]; [8],"88,2%"
same,Adenomyosis No (number of mice),[3]; [9],4
same,Adenomyosis Yes (number of mice),[3]; [9],30
same,"Weight end treatment, Mean",[3]; [9],29.9 g
same,"Ectopic glands, median","[3]; dose I 25 mg/kg, N = 34",3.0
same,Grade 0 (% of mice),"[3]; dose I 25 mg/kg, N = 34",(14.7%)
same,Grade 0 (number of mice),"[3]; dose I 25 mg/kg, N = 34",5
same,Grade 1 (% of mice),"[3]; dose I 25 mg/kg, N = 34",(29.4%)
same,Grade 1 (number of mice),"[3]; dose I 25 mg/kg, N = 34",10
same,Grade 2 (% of mice),"[3]; dose I 25 mg/kg, N = 34",(50.0%)
same,Grade 2 (number of mice),"[3]; dose I 25 mg/kg, N = 34",17
same,Grade 3 (% of mice),"[3]; dose I 25 mg/kg, N = 34",(5.9%)
same,Grade 3 (number of mice),"[3]; dose I 25 mg/kg, N = 34",2
same,"Ratio thickest myometrium/transverse uterine diameter, median","[3]; dose I 25 mg/kg, N = 34",0.18
same,"Ratio thickest myometrium/uterine wall, median","[3]; dose I 25 mg/kg, N = 34",0.49
same,"Ratio thinnest myometrium/uterine wall, median","[3]; dose I 25 mg/kg, N = 34",0.21
same,"Ratio thinnest/thickest myometrium, median","[3]; dose I 25 mg/kg, N = 34",0.26
same,Spread Diffuse (number of mice),"[3]; dose I 25 mg/kg, N = 34",18
same,Spread Focal (number of mice),"[3]; dose I 25 mg/kg, N = 34",8
same,Spread None (% of mice),"[3]; dose I 25 mg/kg, N = 34",(14.7%)
same,Spread None (number of mice),"[3]; dose I 25 mg/kg, N = 34",5
same,Adenomyosis No (% of mice),"[3]; dose I + II pooled, N = 68",(14.9%)
same,Adenomyosis No (number of mice),"[3]; dose I + II pooled, N = 68",10
same,Adenomyosis Yes (% of mice),"[3]; dose I + II pooled, N = 68",(85.1%)
same,Adenomyosis Yes (number of mice),"[3]; dose I + II pooled, N = 68",57
same,"Ectopic areas, Median","[3]; dose I + II pooled, N = 68",1.3
same,"Ectopic glands, median","[3]; dose I + II pooled, N = 68",2.8
same,Grade 0/1 (% of mice),"[3]; dose I + II pooled, N = 68",(40.3%)
same,Grade 0/1 (number of mice),"[3]; dose I + II pooled, N = 68",27
same,Grade 2/3 (% of mice),"[3]; dose I + II pooled, N = 68",(59.7%)
same,Grade 2/3 (number of mice),"[3]; dose I + II pooled, N = 68",40
same,Spread Diffuse (% of mice),"[3]; dose I + II pooled, N = 68",(54.0%)
same,Spread Diffuse (number of mice),"[3]; dose I + II pooled, N = 68",34
same,Spread Focal (% of mice),"[3]; dose I + II pooled, N = 68",(30.2%)
same,Spread Focal (number of mice),"[3]; dose I + II pooled, N = 68",19
same,Spread None (% of mice),"[3]; dose I + II pooled, N = 68",(15.9%)
same,Spread None (number of mice),"[3]; dose I + II pooled, N = 68",10
same,"Weight end treatment, Mean","[3]; dose I + II pooled, N = 68",28.7 g
same,No signs of adenomyosis (% of mice),[3]; [10],"14,7%"
same,Presented with adenomyosis (% of mice),[3]; [10],"82,4%"
same,Adenomyosis No (number of mice),[3]; [11],5
same,Adenomyosis Yes (number of mice),[3]; [11],28
same,"Weight end treatment, Mean",[3]; [11],28.4 g
same,"Ectopic glands, median","[3]; dose II 3 mg/kg, N = 34",2.7
same,Grade 0 (% of mice),"[3]; dose II 3 mg/kg, N = 34",(15.2%)
same,Grade 0 (number of mice),"[3]; dose II 3 mg/kg, N = 34",5
same,Grade 1 (% of mice),"[3]; dose II 3 mg/kg, N = 34",(21.2%)
same,Grade 1 (number of mice),"[3]; dose II 3 mg/kg, N = 34",7
same,Grade 2 (% of mice),"[3]; dose II 3 mg/kg, N = 34",(57.6%)
same,Grade 2 (number of mice),"[3]; dose II 3 mg/kg, N = 34",19
same,Grade 3 (% of mice),"[3]; dose II 3 mg/kg, N = 34",(6.1%)
same,Grade 3 (number of mice),"[3]; dose II 3 mg/kg, N = 34",2
same,"Ratio thickest myometrium/transverse uterine diameter, median","[3]; dose II 3 mg/kg, N = 34",0.18
same,"Ratio thickest myometrium/uterine wall, median","[3]; dose II 3 mg/kg, N = 34",0.54
same,"Ratio thinnest myometrium/uterine wall, median","[3]; dose II 3 mg/kg, N = 34",0.19
same,"Ratio thinnest/thickest myometrium, median","[3]; dose II 3 mg/kg, N = 34",0.23
same,Spread Diffuse (number of mice),"[3]; dose II 3 mg/kg, N = 34",16.4
same,Spread Focal (number of mice),"[3]; dose II 3 mg/kg, N = 34",11
same,Spread None (% of mice),"[3]; dose II 3 mg/kg, N = 34",(15.2%)
same,Spread None (number of mice),"[3]; dose II 3 mg/kg, N = 34",5
same,"Odds ratio, incidence of grade 0/1 vs grade 2/3 adenomyosis, axitinib vs CMC-only","[3]; pooled dose I + II vs placebo, p=0,048",1.33
same,Reduction of adenomyosis severity index compared to placebo-treated mice,[4],48%
same,"Down-regulation of all VEGF receptors (1-3), as well as VEGF-A and VEGF","[5]; dose I axitinib, p<0.05",more than 60%
same,Decrease of expression of endothelial cell marker CD31,"[5]; dose I axitinib, p=0.06",85%
same,Down-regulation of VEGF-R1 expression,"[5]; dose II axitinib, p=0.003",63%
same,Decrease of expression of endothelial cell marker CD31,"[5]; dose II axitinib, p=0.04",85%
bevacizumab,MVD and the expression of VEGF,[6],decreased
"CC/C(=C(\c1ccccc1)c1ccc(OCCN(C)C)cc1)c1ccccc1 [Tamoxifen, tamoxifen]",Fibrosis surrounding the adenomyosis affected areas,"CD-1 mice; H&E and PTAH staining, tamoxifen-treated group",No signs of fibrosis
same,"Weight, Median","CD-1 mice; tamoxifen 1 mg/kg oral day 2-5 after birth, sacrificed after six weeks, n = 6",25.2
same,Adenomyosis No (% of mice),CD-1 mice; [12],(0%)
same,Adenomyosis No (number of mice),CD-1 mice; [12],0
same,Adenomyosis Yes (% of mice),CD-1 mice; [12],(100%)
same,Adenomyosis Yes (number of mice),CD-1 mice; [12],6
same,Adenomyosis Yes (% of mice),"CD-1 mice; tamoxifen 1 mg/kg oral day 2-5 after birth, six weeks, n = 6, listed as tamoxifen",100%
same,"Ectopic glands, median",CD-1 mice; [13],7.5
same,Grade 0 (% of mice),CD-1 mice; [13],(0%)
same,Grade 0 (number of mice),CD-1 mice; [13],0
same,Grade 1 (% of mice),CD-1 mice; [13],(0%)
same,Grade 1 (number of mice),CD-1 mice; [13],0
same,Grade 2 (% of mice),CD-1 mice; [13],(100%)
same,Grade 2 (number of mice),CD-1 mice; [13],6
same,Grade 3 (% of mice),CD-1 mice; [13],(0%)
same,Grade 3 (number of mice),CD-1 mice; [13],0
same,Grade of adenomyosis developed by all mice,CD-1 mice; [13],grade 2
same,"Microvessel density, median, Ectopic endometrium",CD-1 mice; [13],4.8
same,"Microvessel density, median, Endometrium",CD-1 mice; [13],5.9
same,"Microvessel density, median, Myometrium",CD-1 mice; [13],3.0
same,Ratio thickest myometrium/thickest uterine wall (α-SMA),CD-1 mice; [13],0.43
same,Ratio thinnest myometrium/thickest myometrium (α-SMA),CD-1 mice; [13],0.19
same,Ratio thinnest myometrium/thinnest uterine wall (α-SMA),CD-1 mice; [13],0.18
same,Spread Diffuse (% of mice),CD-1 mice; [13],(66.7%)
same,Spread Diffuse (number of mice),CD-1 mice; [13],4
same,Spread Focal (% of mice),CD-1 mice; [13],(33.3%)
same,Spread Focal (number of mice),CD-1 mice; [13],2
CO[C@@H]1[C@H](OC(=O)NC(=O)CCl)CC[C@]2(CO2)[C@H]1[C@@]1(C)O[C@@H]1CC=C(C)C [TNP-470],Development of signs of uterine adenomyosis,[7]; treatment from one day after pituitary grafting until week 13,did not develop signs of uterine adenomyosis
same,"Mean surface area of blood vessels in the endometrium, relative to control group",[7]; treatment until week 13,60.5%
